According to patent US8138158B2, “Compositions and methods for therapy for diseases characterized by defective chloride transport” (Children's Hospital & Research Center at Oakland, priority 1997, dated 2012):

Assays:
ΔF508 CFTR = molecular target: T1, ΔF508 CFTR (Mus musculus, UniProt P26361, DEL508-508); test: Rectal potential difference (RPD) in mice homozygous for ΔF508 CFTR; format: in vivo
T1 construct: from tissue; host or cells: rectal mucosa of living ΔF508 CF mice (C57Bl6/J), TMAO-treated or water-injected
T1 sequence (P26361 with tags, fused parts or gaps DEL508-508): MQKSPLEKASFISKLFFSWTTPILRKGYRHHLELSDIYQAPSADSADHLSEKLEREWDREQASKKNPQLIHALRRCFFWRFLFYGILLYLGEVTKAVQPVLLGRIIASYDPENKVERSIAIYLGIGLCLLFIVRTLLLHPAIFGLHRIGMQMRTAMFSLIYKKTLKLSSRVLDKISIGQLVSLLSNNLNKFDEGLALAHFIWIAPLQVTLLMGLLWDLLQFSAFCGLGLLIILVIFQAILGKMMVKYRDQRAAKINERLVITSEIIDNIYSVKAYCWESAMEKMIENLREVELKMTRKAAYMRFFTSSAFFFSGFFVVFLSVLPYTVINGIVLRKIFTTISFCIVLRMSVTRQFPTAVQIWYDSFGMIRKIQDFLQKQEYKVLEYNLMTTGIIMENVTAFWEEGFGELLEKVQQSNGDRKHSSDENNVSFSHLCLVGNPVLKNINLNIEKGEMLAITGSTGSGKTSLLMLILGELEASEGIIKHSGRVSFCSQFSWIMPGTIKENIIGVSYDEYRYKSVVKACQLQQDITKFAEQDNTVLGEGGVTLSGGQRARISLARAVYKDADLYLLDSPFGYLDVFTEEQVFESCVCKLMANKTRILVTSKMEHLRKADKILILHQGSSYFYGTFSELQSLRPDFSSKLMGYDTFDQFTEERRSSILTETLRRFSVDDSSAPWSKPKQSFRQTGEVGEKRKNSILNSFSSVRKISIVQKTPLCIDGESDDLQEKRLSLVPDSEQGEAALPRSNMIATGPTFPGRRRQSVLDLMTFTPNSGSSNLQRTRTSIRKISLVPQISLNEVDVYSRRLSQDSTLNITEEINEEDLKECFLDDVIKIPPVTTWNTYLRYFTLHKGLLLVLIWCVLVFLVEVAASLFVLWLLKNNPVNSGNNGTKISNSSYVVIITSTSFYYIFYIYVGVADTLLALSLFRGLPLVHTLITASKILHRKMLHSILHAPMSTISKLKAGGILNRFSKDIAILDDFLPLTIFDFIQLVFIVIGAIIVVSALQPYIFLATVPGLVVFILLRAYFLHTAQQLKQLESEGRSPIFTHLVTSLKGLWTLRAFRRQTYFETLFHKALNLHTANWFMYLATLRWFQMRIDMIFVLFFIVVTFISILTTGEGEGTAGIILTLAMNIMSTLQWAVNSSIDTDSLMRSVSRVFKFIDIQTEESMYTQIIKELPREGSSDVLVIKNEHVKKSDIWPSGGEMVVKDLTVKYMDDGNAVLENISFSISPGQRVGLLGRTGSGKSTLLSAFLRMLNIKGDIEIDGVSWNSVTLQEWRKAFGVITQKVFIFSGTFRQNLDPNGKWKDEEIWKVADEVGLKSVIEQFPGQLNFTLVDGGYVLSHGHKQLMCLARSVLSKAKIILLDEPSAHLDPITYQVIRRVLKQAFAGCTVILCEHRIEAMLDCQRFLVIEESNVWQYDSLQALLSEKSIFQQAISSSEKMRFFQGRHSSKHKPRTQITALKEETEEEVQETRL
Excerpt: CF mice and rectal potential difference (RPD) measurements. Gene-targeted mice homozygous for the ΔF508 mutation (C57Bl6/J) received Golytely® (Braintree Laboratories, Inc.), a diarrhetic supplement, in the drinking water to increase their lifespan (Clarke, L. L., Gawenis, L. R., Franklin, C. L. & Harline, M. C. (1996) Lab. Anim. Sci. 46, 612-8). To correct the maturation defect of ΔF508 CFTR we used the chemical chaperone trimethylamine oxide (TMAO) (Brown, C. R., Hong-Brown, L. Q., Biwersi, J., Verkman, A. S. & Welch, W. J. (1996) Cell Stress Chaperones 1, 117-25). CF mice were injected with 4 mg/g TMAO from a 4 M stock solution every 8 hours for 24 hours, which is a regimen to partially correct the ΔF508 defect in CF mice (Fischer, H., Barbry, P., Illek, B., Sartori, C., Fukuda, N. & Matthay, M. A. (2001) Am. J. Physiol. 281, L52-L57). Controls were water-injected. The RPD assay was performed on mice that were anesthetized with 0.1 mg/g body weight ketamine and 0.01 mg/g body weight azepromazine. RPD was sensed with a 1 M NaCl agar bridge inserted ˜1 cm into the rectum vs. a subcutaneous needle filled with 1 M NaCl. Measurements were performed in Cl free solution containing 100 μm amiloride and 5 mM Ba(OH)2 to isolate the Cl-selective RPD.
In this Example, it was determined whether L-ascorbic acid affected the functional activation of ΔF508 CFTR in a CF-affected organism in vivo. Using gene-targeted mice homozygous for the ΔF508 mutation it was shown previously that the osmolyte trimethylamine oxide (TMAO) effectively supported ΔF508 CFTR trafficking in vivo (Fischer, H., Barbry, P., Illek, B., Sartori, C., Fukuda, N. & Matthay, M. A. (2001) Am. J. Physiol. 281, L52-L57). Accordingly, the effect of L-ascorbic acid was tested in homozygous ΔF508 CF mice treated with TMAO by using the RPD assay as a functional end point measure for mutant ΔF508-CFTR function. FIG. 24A illustrates that TMAO-treated CF mice manifested a detectable response to a maximal dose of L-ascorbic acid (1 mM) or its epimer D-isoascorbic acid (300 μM) and RPD hyperpolarized on average by −3.2±0.8 mV (n=4) and −3.6±1.8 mV (n=3), respectively (FIG. 24B).

CFTR Cl channels = molecular target: T2, CFTR Cl channels (Homo sapiens, UniProt P13569); test: Outside-out single channel patch clamp on Calu-3 cells; format: cell-based
T2 construct: Calu-3 airway cells which express large amounts of native CFTR; endogenous in cells; host or cells: Calu-3 human airway epithelial cells
T2 sequence (P13569 whole entry): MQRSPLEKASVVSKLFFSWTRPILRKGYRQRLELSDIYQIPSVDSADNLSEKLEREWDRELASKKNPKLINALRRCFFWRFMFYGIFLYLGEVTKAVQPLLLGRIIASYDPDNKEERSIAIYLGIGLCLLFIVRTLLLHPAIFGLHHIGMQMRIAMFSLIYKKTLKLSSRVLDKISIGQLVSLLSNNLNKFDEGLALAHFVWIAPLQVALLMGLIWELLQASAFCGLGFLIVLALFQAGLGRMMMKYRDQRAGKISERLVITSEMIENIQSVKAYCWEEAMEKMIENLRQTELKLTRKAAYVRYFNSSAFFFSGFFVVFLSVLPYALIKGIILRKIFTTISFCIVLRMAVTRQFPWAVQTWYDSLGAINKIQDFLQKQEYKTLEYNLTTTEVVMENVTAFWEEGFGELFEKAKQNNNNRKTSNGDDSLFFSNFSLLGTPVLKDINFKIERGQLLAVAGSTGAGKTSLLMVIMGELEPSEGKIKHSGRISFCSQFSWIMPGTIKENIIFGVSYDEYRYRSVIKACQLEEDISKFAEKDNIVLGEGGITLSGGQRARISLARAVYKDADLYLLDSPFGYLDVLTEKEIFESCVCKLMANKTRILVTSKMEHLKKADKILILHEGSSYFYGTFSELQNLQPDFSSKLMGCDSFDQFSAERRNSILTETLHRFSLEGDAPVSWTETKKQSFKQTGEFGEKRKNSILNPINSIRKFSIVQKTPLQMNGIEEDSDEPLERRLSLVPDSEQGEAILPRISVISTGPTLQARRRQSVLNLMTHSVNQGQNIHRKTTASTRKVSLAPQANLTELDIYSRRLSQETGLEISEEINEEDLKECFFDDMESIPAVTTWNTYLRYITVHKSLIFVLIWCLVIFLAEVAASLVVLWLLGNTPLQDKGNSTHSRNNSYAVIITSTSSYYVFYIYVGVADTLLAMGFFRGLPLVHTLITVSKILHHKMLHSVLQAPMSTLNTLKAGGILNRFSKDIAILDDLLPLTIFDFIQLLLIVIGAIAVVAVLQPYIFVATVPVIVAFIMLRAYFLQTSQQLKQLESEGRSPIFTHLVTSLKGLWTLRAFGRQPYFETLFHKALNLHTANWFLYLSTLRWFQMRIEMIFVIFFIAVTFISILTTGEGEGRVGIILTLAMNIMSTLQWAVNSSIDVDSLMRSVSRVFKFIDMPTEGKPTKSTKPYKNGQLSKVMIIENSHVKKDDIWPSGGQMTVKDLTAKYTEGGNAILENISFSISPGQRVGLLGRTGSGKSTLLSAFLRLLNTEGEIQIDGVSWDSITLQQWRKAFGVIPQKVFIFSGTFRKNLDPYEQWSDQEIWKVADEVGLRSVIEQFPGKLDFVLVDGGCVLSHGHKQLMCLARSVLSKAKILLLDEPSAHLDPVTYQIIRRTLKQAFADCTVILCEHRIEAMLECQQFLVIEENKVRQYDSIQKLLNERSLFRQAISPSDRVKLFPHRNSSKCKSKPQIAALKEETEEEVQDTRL
Method: Patch clamp analysis. Single channel patch clamp studies were performed on Calu-3 cells at 37° C. The outside-out recording mode was established via the whole cell mode as described (Fischer, H. (2001) in Methods in Molecular Medicine, […]. & Walker, J. M. (Humana Press Inc, Totowa), pp. 49-66.). The bath solution contained (in mM) 145 NaCl, 1.7 CaCl2, 1 MgCl2, 10 Hepes, 10 glucose, pH=7.4. The pipette solution contained (in mM): 15 N-methyl-D-glucamine (NMG) Cl, 10 EGTA, 1 MgCl2, 10 Hepes, 10 glucose, 120 NMG-gluconate, 5 MgATP, 0.1 LiGTP, pH=7.4. […] The regulatory role of vitamin C on Cl ion channel activity was studied in Calu-3 airway cells which express large amounts of native CFTR as their major Cl conductance ([…]., Widdicombe, J. H. & Wine, J. J. (1994) Am. J. Physiol. 266, […]-[…]). […] Details of the single channel recording are illustrated in FIG. 20C. […] At negative potentials no channel openings were resolved indicating Cl-over-gluconate selectivity. Cyclic AMP is the major intracellular messenger for the activation of CFTR. We tested the possibility that L-ascorbic acid increased intracellular cAMP levels [cAMP], by either turning on cAMP production or preventing cAMP degradation. FIG. 20E compares whole cell cAMP levels of Calu-3 cells challenged with either increasing concentrations of L-ascorbic acid or the cAMP agonist forskolin.

[1] = system: nasal potential difference; test: Nasal potential difference measurement in a human volunteer (Knowles protocol); format: in vivo; conditions: L-ascorbic acid 100 μM in luminal perfusate; amiloride, chloride-free solution
Method: In vivo, chloride secretion may be assessed using measurements of nasal potential differences in a mammal, such as a human or a mouse. […] The nasal potential difference is measured as the electrical potential measured on the nasal mucosa with respect to a skin electrode placed on a slightly scratched skin part (see Alton et al., Eur. Respir. J. 3:922-926, 1990) or with respect to a subcutaneous needle (see Knowles et al., Hum. Gene Therapy 6:445-455, 1995). Nasal potential difference is evaluated in the presence and absence of test compound, and those compounds that results in a statistically significant increase in nasal potential difference stimulate chloride transport.
The effect of quercetin on nasal potential difference (PD) measurement in a healthy human volunteer was measured as described by Knowles et al., Hum. Gene Therapy 6:445-455, 1995.
Nasal potential difference measurement was performed on a human volunteer according to a protocol by Knowles et al., Hum. Gene Therapy 6:445-455, 1995. Addition of L-ascorbic acid (100 μM) to the luminal perfusate in the nose (in the presence of amiloride (blocks Na currents) and in chloride-free solution) hyperpolarized nasal potential difference (PD) by 6.3 mV (FIG. 17). […] Stimulation was reversed by washing out drugs with NaCl Ringer solution.

**Q.** How did the “RPD hyperpolarized on average by” value (ΔF508 CFTR; CF mice treated with 4 mg/g TMAO for 24 hours, L-ascorbic acid 1 mM, n=4) turn out when `O=C1O[C@H](C(O)CO)C(O)=C1O` (stereo partly drawn) [L-ascorbic acid, L-xyloascorbic acid] was run?
**A.** The value was −3.2±0.8 mV.

**Q.** And the ΔRPD (ΔF508 CFTR; water-injected control CF mice, L-ascorbic acid or D-isoascorbic acid, n=9)?
**A.** The ΔRPD was −1.1±0.4 mV.

**Q.** And the “average single channel open probability (Po) increased from zero to” value (CFTR Cl channels; 100 μM L-ascorbic acid, n=4)?
**A.** Its value is 0.21±0.08.

**Q.** And the “CFTR Cl channel openings” value (CFTR Cl channels; applied to extracellular surface of the patched membrane)?
**A.** Its value is “induced openings of CFTR Cl channels”.

**Q.** And the “slope conductance of ascorbate-stimulated chloride conductance” value (CFTR Cl channels; n=4)?
**A.** Its value is 8.9±0.2 pS.

**Q.** And the “hyperpolarized nasal potential difference (PD) by” value [1]?
**A.** Its value is 6.3 mV.
